Reference: ChEMBL document CHEMBL4376809, “Discovery of a Potent and Selective Fragment-like Inhibitor of Methyllysine Reader Protein Spindlin 1 (SPIN1)” (J Med Chem, 2019)
Activity calls are given as the source filed them. The rule behind the calls is not given here. Non-standard residues stand in square brackets, D forms with d. Residues, ends and D or L forms follow the SMILES beside them. *: point of attachment. Benzoyl(4-tBu) = CC(C)(C)c1ccc(C(=O)*)cc1; Lys(Et2) = CCN(CC)CCCC[C@H](N)C(=O)O

Tests used:
[1] = biological target: T1, Spindlin-1 (Homo sapiens, UniProt Q9Y657)
T1 sequence (Q9Y657 whole entry): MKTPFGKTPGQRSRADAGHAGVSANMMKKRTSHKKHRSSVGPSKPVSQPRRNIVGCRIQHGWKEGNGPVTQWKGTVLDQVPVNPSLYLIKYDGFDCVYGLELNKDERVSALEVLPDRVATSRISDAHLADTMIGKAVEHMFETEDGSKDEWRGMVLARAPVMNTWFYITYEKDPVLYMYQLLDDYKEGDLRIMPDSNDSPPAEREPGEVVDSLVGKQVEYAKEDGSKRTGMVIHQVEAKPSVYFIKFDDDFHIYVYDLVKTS

[2] = biological target: T1, Spindlin-1; remark: listed apart in the source
[3] = biological target: T1, Spindlin-1; remark: listed apart in the source
[4] = biological target: Histone-lysine N-methyltransferase EHMT1/EHMT2 (Homo sapiens) (UniProt Q9H9B1+Q96KQ7); assay: Inhibition of human G9a catalytic domain/GLP catalytic domain in presence of SAM assessed as dissociation constant by isothermal calorimetry assay; type: protein assay
Sequence of Histone-lysine N-methyltransferase EHMT1/EHMT2 (Homo sapiens) (Q96KQ7 whole entry, looked up, the tested form may be a part): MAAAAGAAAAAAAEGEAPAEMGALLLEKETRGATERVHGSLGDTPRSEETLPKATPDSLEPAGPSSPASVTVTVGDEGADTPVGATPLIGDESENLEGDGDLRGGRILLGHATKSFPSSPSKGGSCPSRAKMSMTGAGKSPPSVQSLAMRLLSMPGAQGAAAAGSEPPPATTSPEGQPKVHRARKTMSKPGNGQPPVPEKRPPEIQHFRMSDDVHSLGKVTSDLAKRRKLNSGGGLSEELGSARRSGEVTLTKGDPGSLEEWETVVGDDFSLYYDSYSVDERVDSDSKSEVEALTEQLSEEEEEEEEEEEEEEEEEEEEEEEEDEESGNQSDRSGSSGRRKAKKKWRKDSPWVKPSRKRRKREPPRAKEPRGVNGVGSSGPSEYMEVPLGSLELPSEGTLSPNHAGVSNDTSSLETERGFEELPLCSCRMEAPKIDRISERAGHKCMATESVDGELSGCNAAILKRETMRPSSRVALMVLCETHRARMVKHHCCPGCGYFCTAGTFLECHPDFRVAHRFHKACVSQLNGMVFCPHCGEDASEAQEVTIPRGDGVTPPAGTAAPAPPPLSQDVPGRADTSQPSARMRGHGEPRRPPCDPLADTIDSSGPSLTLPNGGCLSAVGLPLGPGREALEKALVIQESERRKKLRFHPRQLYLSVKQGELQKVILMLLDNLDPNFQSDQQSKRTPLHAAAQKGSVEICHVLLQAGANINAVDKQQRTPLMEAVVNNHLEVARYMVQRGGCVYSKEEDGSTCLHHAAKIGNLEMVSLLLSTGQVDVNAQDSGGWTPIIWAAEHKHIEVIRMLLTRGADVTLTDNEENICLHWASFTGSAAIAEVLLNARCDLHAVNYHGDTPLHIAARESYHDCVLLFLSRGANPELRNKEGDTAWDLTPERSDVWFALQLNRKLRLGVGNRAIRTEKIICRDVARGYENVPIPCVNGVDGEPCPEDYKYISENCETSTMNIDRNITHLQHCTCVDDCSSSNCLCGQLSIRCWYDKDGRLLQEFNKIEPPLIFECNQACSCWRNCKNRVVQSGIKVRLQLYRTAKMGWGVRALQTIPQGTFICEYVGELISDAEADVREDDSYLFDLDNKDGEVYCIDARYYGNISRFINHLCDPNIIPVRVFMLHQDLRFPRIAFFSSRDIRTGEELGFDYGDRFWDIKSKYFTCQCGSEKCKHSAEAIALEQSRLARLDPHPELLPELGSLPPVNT
Sequence of Histone-lysine N-methyltransferase EHMT1/EHMT2 (Homo sapiens) (Q9H9B1 whole entry, looked up, the tested form may be a part): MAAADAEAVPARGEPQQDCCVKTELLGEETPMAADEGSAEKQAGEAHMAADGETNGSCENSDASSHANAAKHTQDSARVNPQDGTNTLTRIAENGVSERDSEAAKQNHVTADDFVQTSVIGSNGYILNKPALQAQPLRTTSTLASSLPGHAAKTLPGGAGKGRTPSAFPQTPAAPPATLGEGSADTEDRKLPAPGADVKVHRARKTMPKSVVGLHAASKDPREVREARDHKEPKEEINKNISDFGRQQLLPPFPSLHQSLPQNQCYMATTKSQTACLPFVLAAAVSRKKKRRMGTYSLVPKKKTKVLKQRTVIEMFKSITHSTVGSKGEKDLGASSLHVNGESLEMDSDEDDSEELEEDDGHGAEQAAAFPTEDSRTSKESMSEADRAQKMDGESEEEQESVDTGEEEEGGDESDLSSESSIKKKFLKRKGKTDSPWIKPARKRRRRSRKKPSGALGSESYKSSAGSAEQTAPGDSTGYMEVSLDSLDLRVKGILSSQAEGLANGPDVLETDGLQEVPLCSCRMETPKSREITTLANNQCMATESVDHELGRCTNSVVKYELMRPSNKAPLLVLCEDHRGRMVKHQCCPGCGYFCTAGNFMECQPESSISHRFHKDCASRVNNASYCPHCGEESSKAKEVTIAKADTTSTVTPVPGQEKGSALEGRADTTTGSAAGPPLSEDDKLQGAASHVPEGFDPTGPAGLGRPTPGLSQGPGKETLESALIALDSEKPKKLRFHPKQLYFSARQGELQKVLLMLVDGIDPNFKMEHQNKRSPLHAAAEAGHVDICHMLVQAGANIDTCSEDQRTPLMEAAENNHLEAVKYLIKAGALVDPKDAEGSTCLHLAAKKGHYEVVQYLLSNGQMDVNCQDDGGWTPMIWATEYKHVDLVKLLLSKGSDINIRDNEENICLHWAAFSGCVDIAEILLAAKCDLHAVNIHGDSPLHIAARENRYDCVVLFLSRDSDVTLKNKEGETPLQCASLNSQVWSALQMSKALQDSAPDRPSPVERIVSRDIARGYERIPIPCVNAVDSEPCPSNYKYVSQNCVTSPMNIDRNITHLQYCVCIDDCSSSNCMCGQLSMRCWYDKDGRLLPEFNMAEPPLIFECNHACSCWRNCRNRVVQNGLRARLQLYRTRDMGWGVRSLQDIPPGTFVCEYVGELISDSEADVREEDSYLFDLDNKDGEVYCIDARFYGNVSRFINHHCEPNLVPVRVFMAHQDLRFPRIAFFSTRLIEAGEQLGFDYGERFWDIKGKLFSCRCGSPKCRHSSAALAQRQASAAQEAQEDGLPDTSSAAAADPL

[5] = biological target: T1, Spindlin-1; assay: biochemical
[6] = biological target: T1, Spindlin-1; assay: biochemical; remark: listed apart in the source
[7] = biological target: Spindlin-2B (Homo sapiens, UniProt Q9BPZ2); assay: Inhibition of recombinant human N-terminal His6-tagged SPIN2B (45 to 258 residues) expressed in Escherichia coli BL21 (DE3) cells assessed as dissociation constant by isothermal titration calorimetry
Sequence of Spindlin-2B (Q9BPZ2 whole entry, the tested form may be a part): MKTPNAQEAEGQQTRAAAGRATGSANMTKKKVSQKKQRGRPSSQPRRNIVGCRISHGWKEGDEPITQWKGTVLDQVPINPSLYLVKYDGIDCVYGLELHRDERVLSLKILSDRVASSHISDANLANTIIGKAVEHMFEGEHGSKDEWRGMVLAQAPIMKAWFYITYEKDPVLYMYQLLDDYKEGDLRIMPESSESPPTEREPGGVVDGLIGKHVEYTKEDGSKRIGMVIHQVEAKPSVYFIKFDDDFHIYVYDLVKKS

[8] = biological target: T2, Spindlin-4 (Homo sapiens, UniProt Q56A73); assay: Inhibition of recombinant human N-terminal His6-tagged SPIN4 (36 to 249 residues) expressed in Escherichia coli BL21 (DE3) cells assessed as dissociation constant by isothermal titration calorimetry
T2 sequence (Q56A73 whole entry): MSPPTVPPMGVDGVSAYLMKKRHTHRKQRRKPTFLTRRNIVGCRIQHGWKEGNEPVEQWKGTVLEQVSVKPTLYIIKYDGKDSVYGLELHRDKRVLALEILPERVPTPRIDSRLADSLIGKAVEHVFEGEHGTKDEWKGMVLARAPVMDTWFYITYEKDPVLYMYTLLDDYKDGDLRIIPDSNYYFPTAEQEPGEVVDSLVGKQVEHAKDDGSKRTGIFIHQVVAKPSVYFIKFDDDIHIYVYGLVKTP

[9] = system: HEK-293T; assay: Cytotoxicity against human 293T cells assessed as reduction in cell viability up to 30 uM incubated for 6 days by resazurin dye based fluorescence assay; conditions: 144 h
[10] = biological target: Spindlin-3 (Homo sapiens, UniProt Q5JUX0); assay: Inhibition of recombinant human N-terminal His6-tagged SPIN3 (27 to 258 residues) expressed in Escherichia coli BL21 (DE3) cells assessed as dissociation constant by isothermal titration calorimetry
Sequence of Spindlin-3 (Q5JUX0 whole entry, the tested form may be a part): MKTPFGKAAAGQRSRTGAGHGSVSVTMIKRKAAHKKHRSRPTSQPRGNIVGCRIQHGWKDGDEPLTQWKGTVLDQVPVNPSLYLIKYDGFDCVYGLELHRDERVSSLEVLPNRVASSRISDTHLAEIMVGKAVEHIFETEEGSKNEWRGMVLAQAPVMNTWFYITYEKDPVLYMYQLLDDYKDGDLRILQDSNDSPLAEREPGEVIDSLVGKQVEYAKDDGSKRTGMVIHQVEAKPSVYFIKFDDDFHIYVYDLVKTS

[11] = species on record: Homo sapiens; assay: Inhibition of human MLL1/RBBP5/WDR5 trimeric complex up to 50 uM using Biot-H3 (1-25) as substrate and in presence of [3H]-SAM incubated for 1 hr by scintillation proximity assay
[12] = system: HFF-1; assay: Cytotoxicity against human HFF1 cells assessed as reduction in cell viability up to 30 uM incubated for 6 days by resazurin dye based fluorescence assay; conditions: hff-1, 144 h
[13] = species on record: Homo sapiens; assay: Binding affinity to JARID1 (unknown origin) assessed as induction of thermal shifts at 20 uM measured for 25 mins by SYPRO orange dye thermal shift assay
[14] = system: C2C12; assay: Cytotoxicity against mouse C2C12 cells assessed as reduction in cell viability up to 30 uM incubated for 6 days by resazurin dye based fluorescence assay; conditions: c2c12, 144 h
[15] = species on record: Homo sapiens; assay: Inhibition of human MLL3/ASH2L/RBBP5/WDR5/DPY30 pentameric complex up to 50 uM using Biot-H3 (1-25) as substrate and in presence of [3H]-SAM incubated for 1 hr by scintillation proximity assay
[16] = biological target: T3, E3 SUMO-protein ligase CBX4 (Homo sapiens, UniProt O00257); assay: Inhibition of CBX4 (unknown origin) assessed as dissociation constant by isothermal titration calorimetry
T3 sequence (O00257 whole entry): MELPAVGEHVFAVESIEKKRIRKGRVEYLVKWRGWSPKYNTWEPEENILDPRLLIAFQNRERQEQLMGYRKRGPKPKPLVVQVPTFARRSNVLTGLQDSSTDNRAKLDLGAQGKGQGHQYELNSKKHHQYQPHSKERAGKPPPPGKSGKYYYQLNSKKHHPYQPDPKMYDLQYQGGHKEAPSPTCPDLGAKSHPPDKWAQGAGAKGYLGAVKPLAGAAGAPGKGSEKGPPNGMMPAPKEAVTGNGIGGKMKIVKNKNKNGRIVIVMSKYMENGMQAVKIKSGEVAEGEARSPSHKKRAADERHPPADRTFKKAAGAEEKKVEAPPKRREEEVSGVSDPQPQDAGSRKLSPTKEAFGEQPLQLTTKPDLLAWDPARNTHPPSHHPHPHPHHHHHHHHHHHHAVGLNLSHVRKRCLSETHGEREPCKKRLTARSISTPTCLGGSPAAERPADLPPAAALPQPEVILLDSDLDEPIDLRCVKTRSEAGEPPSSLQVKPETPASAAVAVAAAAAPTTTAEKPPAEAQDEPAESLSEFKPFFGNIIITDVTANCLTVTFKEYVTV

[17] = biological target: T4, Chromobox protein homolog 7 (Homo sapiens, UniProt O95931); assay: Inhibition of CBX7 (unknown origin) assessed as dissociation constant by isothermal titration calorimetry
T4 sequence (O95931 whole entry): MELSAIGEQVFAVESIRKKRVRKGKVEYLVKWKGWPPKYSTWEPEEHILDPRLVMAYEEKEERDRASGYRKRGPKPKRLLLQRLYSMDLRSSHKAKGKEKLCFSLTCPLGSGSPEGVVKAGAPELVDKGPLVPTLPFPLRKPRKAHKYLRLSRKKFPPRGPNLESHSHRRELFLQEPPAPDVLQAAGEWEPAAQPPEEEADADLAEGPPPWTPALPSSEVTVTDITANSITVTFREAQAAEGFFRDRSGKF

COc1c(CN)cc(C(N)=O)cc1OCCCN1Cc2ccccc2C1
Kd [1]: Not Active | IC50 [2]: Not Active | IC50 [3]: Not Active

COc1c(CN)cc(CN)cc1OCCCN1CCCC1
Kd ([1]; read-out: Kd): 390 nM | inhibition [4]: inactive | IC50 [5]: 741 nM | IC50 [6]: 338 nM

COc1c(CN)cc(CN)cc1OCCCN1Cc2ccccc2C1
Kd [7]: 170 to 1700 nM | Kd [8]: 170 to 1700 nM | Activity [9]: Non-Toxic | Kd [10]: 170 to 1700 nM | inhibition [4]: inactive | inhibition [11]: inactive | Activity [12]: Non-Toxic | Activity [13]: inactive | Activity [14]: Non-Toxic | inhibition [15]: inactive

CCN(CC)CCCC[C@H](NC(=O)[C@H](CC(C)C)NC(=O)[C@H](C)NC(=O)[C@H](C)NC(=O)c1ccc(C(C)(C)C)cc1)C(=O)N[C@@H](CO)C(=O)OC ({Benzoyl(4-tBu)}-AAL[Lys(Et2)]S-OMe)
Kd [16]: 94 nM | Kd [17]: 97 nM
